System: SV40 immortalized human corneal epithelial cells (HCE-T)
Test: Evaluation test of protective effect on corneal epithelial cell (drying load)
Assay type: cell-based
Conditions: 1 h pre-culture with 0.25% (w/v) propylene glycol and/or 0.03% (w/v) sodium hyaluronate, dried 7.5 minutes, FIG. 1
Procedure: SV40 immortalized human corneal epithelial cells: (HCE-T: RIKEN BioResource Center, Japan, Cell No.: RCB2280) were seeded to a 96-well plate (1×10^4 cells/well) and cultured for one day in an SHEM culture medium. On the next day, the culture medium was replaced with a D-MEM/F12 culture medium containing 0.25% (w/v) propylene glycol, 0.03% (w/v) sodium hyaluronate, or 0.25% (w/v) propylene glycol and 0.03% (w/v) sodium hyaluronate, and thereafter the corneal epithelial cells were cultured for one hour (hereinafter, each also referred to as a “propylene glycol alone group,” a “hyaluronic acid alone group,” or a “propylene glycol/hyaluronic acid combination group”). It is noted that a group that a culture medium was replaced with a D-MEM/F12 culture medium not containing a tested substance and thereafter the corneal epithelial cells were cultured for one hour was defined as a “vehicle group”. After culture, a culture medium of each group was replaced with a D-MEM/F12 culture medium not containing a tested substance and then cells were dried for 7.5 minutes. After drying load, cell viability was measured using Cell Proliferation Assay Kit (manufactured by Promega, catalogue No.: G3580) (corresponding to absorbance of 490 nm).

Row | Compound | Suppression of decrease in cell viability of corneal epithelial cells due to drying load
1 | CC(O)CO (centres unmarked) [propylene glycol] | not sufficiently suppressed
2 | sodium hyaluronate [hyaluronic acid] | not sufficiently suppressed
